The numbers were not newly measured in patent publication US20070292393A1, “USE OF THYMOSIN ALPHA 1 FOR PREPARING A MEDICAMENT FOR THE TREATMENT OF STAGE IV MALIGNANT MELANOMA” (SIGMA-TAU INDUSTRIE FARMACEUTICHE RIUNITE S.P.A., priority 2006, published 2007), which cites them from elsewhere.

The subject of the series is metastatic melanoma.

Turning to `CN(C)/N=N/c1[nH]cnc1C(N)=O` [DTIC, Dacarbazine], the “effect of responses on patients' overall survival” value is listed as “no evidence”. Moreover, for the setting “recent publications (J Clin Oncol, ASCO 2004)”, the “actual overall responses to DTIC” value is 5.5-6.8%. For the same compound, under “responses short-lived”, the duration of responses result was “three to six”.
